Laboratory results from patent US9249158B2, “Cytomegalovirus inhibitor compounds” (Boehringer Ingelheim International GmbH, priority 2012, dated 2016).

molecular target: T1, purified recombinant HCMV polymerase (UL54) (Human cytomegalovirus, UniProt P08546); test: HCMV Polymerase LANCE TR-FRET Assay; type: biochemical; settings: not given
T1 construct: made in house; host or cells: Sf21 insect cells (baculovirus)
Protocol: The codon optimized UL54 HCMV polymerase gene for expression in insect cells is obtained from DNA 2.0 (Menlo Park, Calif.) and subcloned in 3′ of the Glutathione-S-transferase (GST) gene in a pFastBac-derived vector. Bacmids and baculoviruses are generated and expression performed in Sf21 insect cells cultured in SF900 II SFM media. Infection using the baculoviruses is performed using an MOI of 5-10 and the cells are harvested 48 h post-infection and frozen.
All purification procedures are performed at 4° C. The cell pellet from 1 L of culture (1×10^9 cells) is resuspended in 25 mL of 50 mM Tris pH 7.5, 1 mM TCEP, 0.1 mM EDTA, 150 mM NaCl, 10% Glycerol, 1 mM PMSF, 2 μg/mL Leupeptin, 2 μg/mL Antipain, 2 μg/mL Pepstatin A. The solution is homogenized using a Dounce tissue grinder. Following homogenization, the volume is increased to 40 mL followed by centrifugation at 750×g for 5 min to remove nuclei. The supernatant is then transferred and 3 cc of 50% slurry of glutathione-sepharose 4B resin is added. The mixture is incubated on a rotator for 1 h. The slurry is centrifuged at 500 g for 5 min. The supernatant is discarded and the pellet is resuspended in 10× volume of wash buffer (50 mM Tris pH 7.5, 1 mM TCEP, 0.1 mM EDTA, 150 mM NaCl, 10% Glycerol) and incubated for 5 min. The slurry is centrifuged at 500 g for 5 min and the supernatant is discarded. The wash step is performed 5 times. The elution is performed by adding 1.5 volume of elution buffer (50 mM Tris pH 7.5, 1 mM TCEP, 0.1 mM EDTA, 150 mM NaCl, 10% Glycerol, 20 mM glutathione) and incubating on a rotator for 15 min. The slurry is centrifuged at 500 g for 5 min and the supernatant is removed and kept. The elution step is performed four times. The supernatants are pooled and centrifuged at 500×g for 5 min to remove resin particles and frozen at −80° C.
The frozen protein is thawed and the NaCl concentration reduced to 37.5 mM by the addition of 3 volumes of DEAE buffer A (50 mM Tris pH 7.5, 1 mM TCEP, 0.1 mM EDTA, 10% Glycerol). The protein is loaded on a HiTrap DEAE-Sepharose μF column and eluted using a gradient with DEAE buffer B (50 mM Tris pH 7.5, 1 mM TCEP, 0.1 mM EDTA, 10% Glycerol, 1 M NaCl). UL54 eluted at 140 mM NaCl. The DEAE fractions are pooled, frozen and stored at −80° C. The protein concentration is determined by OD280 (A280=1.03 mg/mL).
This non-radiometric assay determines the enzymatic activity of purified recombinant HCMV polymerase (UL54) using a Digoxigenin-labeled oligonucleotide priming a heteropolymeric template. The enzymatic activity is determined by incorporating Biotin-dUTP in the nascent complementary strand. The signal is generated by Fluorescence Resonance Energy Transfer from the donor (Anti-Digoxigenin-Europium Chelate binding with the primer) to the acceptor Streptavidin-AlloPhycoCyanin (SA-APC) binding to the biotin of the labeled nucleotides incorporated in proximity.
Serial dilutions of the DMSO stock compound solution are performed using DMSO in columns 2-11 and 14-23. DMSO alone is present in columns 1, 12, 13 and 24. The plate is centrifuged at 200×g for 30 sec. 35 μL of compound dilution buffer (10 mM Hepes pH 7.5, 25 mM KCl, 5 mM MgCl2, 1 mM TCEP) is added to 5 μL of the diluted compound in DMSO to obtain 12.5% DMSO. 4 μL per well of the 12.5% DMSO serial dilution compound solution is added to the assay plate.
The assay conditions are the following: 10 mM HEPES pH 7.5, 25 mM KCl, 7.5 mM NaCl, 5 mM MgCl2, 0.2 mg BSA/mL, 1 mM TCEP, 1.5% glycerol, 5% DMSO, 235 nM dATP, 350 nM dCTP, 350 nM dGTP, 235 nM dTTP, 12 nM biotin-16-dUTP, 23.5 nM Dig-primer/template, 2 nM GST-UL54. The assay volume is 10 μL. […]

T1 sequence (P08546 whole entry): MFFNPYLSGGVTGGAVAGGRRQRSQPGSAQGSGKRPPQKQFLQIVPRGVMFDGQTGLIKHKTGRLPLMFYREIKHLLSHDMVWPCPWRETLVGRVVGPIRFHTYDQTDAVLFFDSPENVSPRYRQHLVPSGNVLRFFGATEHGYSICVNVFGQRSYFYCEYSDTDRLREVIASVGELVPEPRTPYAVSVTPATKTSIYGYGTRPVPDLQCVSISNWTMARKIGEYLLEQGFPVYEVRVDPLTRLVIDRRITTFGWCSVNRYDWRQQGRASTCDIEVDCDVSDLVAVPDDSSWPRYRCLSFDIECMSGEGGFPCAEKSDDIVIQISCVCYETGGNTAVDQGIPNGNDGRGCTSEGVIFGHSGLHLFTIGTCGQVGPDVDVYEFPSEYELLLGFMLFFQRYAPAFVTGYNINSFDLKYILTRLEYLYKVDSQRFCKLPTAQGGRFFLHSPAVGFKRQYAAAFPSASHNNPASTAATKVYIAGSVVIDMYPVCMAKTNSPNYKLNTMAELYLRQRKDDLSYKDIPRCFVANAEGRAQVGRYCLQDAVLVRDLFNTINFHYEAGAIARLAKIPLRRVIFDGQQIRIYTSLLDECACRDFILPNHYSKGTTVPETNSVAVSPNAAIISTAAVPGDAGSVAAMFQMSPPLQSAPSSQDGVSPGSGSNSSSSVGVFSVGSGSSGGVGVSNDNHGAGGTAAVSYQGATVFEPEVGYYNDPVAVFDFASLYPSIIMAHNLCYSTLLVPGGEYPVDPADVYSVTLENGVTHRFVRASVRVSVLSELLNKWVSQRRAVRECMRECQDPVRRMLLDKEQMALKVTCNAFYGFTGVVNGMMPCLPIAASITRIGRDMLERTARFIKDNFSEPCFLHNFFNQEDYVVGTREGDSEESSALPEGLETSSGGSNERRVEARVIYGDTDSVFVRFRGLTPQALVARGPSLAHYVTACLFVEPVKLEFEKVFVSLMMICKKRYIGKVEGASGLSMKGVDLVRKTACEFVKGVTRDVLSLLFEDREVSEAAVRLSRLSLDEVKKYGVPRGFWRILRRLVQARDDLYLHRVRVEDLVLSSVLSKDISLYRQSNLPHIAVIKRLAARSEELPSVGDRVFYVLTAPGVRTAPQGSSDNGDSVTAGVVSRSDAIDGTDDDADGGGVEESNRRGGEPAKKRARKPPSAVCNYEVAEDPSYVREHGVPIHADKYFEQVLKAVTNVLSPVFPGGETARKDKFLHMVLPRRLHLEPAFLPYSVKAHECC

Row | Compound | IC50 [nM]
1 | Cc1cc(Cl)ccc1CNC(=O)c1cc2c3c(cnc2n(CC(=O)N2CC(C)(F)C2)c1=O)nc(C)n3C [Compound 5038] | 140

same assay, conditions: 2 nM GST-UL54, 37° C. for 30 min, 5% DMSO; read-out: Example 34 IC50

Row | Compound | IC50 [nM]
2 | Cc1nc2cnc3c(cc(C(=O)NCc4ccc(Cl)cc4)c(=O)n3CC(=O)N(C)CC(C)(C)CO)c2n1C [Compound 1073] | 42
3 | COCc1nc2cnc3c(cc(C(=O)NCc4ccc(Cl)cc4)c(=O)n3CC(=O)N3CC(C)(F)C3)c2n1C [Compound 1031] | 58
4 | Cc1nc2cnc3c(cc(C(=O)NCc4ccc(Cl)cc4)c(=O)n3CC(=O)N3CC(F)(CF)C3)c2n1C [Compound 1007] | 48
5 | CN(C)c1nc2c3cc(C(=O)NCc4ccc(Cl)cc4)c(=O)n(CC(=O)N4CC(C)(F)C4)c3ncc2n1C [Compound 2017] | 210
6 | Cc1nc2cnc3c(cc(C(=O)NCc4ccc(C#N)cc4)c(=O)n3CC(=O)N3CC(C)(F)C3)c2n1C [Compound 3001] | 140
7 | Cc1nc2cnc3c(cc(C(=O)NCc4ccc(Cl)cc4)c(=O)n3CC(=O)N3CC4(C3)NCC4(F)F)c2n1C [Compound 1072] | 260
8 | Cc1nc2cnc3c(cc(C(=O)NCc4ccc(Cl)c(O)c4)c(=O)n3CC(=O)N3CC(C)(F)C3)c2n1C [Compound 5046] | 190
9 | Cc1nc2cnc3c(cc(C(=O)NCc4ccc(Cl)cc4)c(=O)n3CC(=O)N3CC(C)(F)C3)c2n1C [Compound 1002] | 38
10 | COc1nc2cnc3c(cc(C(=O)NCc4ccc(Cl)cc4)c(=O)n3CC(=O)N3CC(C)(C#N)C3)c2n1C [Compound 1074] | 75
11 | COc1nc2c(cc(C(=O)NCc3ccc(Cl)cc3)c(=O)n2CC(=O)N2CC(C)(F)C2)c2c1nc(C)n2C [Compound 5035] | 240
12 | Cc1nc2cnc3c(cc(C(=O)NCc4ccc(Cl)cc4)c(=O)n3CC(=O)N3CC(F)(CO)C3)c2n1C [Compound 1065] | 35
13 | Cc1cn(C)c2c1cnc1c2cc(C(=O)NCc2ccc(Cl)cc2)c(=O)n1CC(=O)N1CC(C)C1 [Compound 5007] | 65
14 | CCn1cnc2cnc3c(cc(C(=O)NCc4ccc(Cl)cc4)c(=O)n3CC(=O)N3CC(C)(F)C3)c21 [Compound 1004] | 26
15 | Cn1cc(-c2nc3cnc4c(cc(C(=O)NCc5ccc(Cl)cc5)c(=O)n4CC(=O)N4CC(C)(F)C4)c3n2C)cn1 [Compound 1016] | 74
16 | CC1(C)CN(C(=O)Cn2c(=O)c(C(=O)NCc3ccc(Cl)cc3)cc3c4c(cnc32)NC(C)(C)CO4)C1 [Compound 5022] | 460
17 | Cn1c(N2CCOCC2)nc2cnc3c(cc(C(=O)NCc4ccc(Cl)cc4)c(=O)n3CC(=O)N3CC(C)(F)C3)c21 [Compound 1056] | 110
18 | Cn1c(N2CCCC2=O)nc2cnc3c(cc(C(=O)NCc4ccc(Cl)cc4)c(=O)n3CC(=O)N3CC(C)(F)C3)c21 [Compound 1038] | 78
19 | Cn1c(=O)n(C)c2c3cc(C(=O)NCc4ccc(Cl)cc4)c(=O)n(CC(=O)N4CC(C)(F)C4)c3ncc21 [Compound 5006] | 89
20 | COc1cc(CNC(=O)c2cc3c4c(cnc3n(CC(=O)N3CC(C)(F)C3)c2=O)nc(C)n4C)ccc1Cl [Compound 5048] | 170
21 | Cc1nc2cnc3c(cc(C(=O)NCc4ccc(Cl)cc4)c(=O)n3CC(=O)N3CC(C)(F)C3)c2nc1C [Compound 5037] | 440
22 | Cn1c(-n2ccnc2)nc2cnc3c(cc(C(=O)NCc4ccc(Cl)cc4)c(=O)n3CC(=O)N3CC(C)(F)C3)c21 [Compound 1061] | 60
23 | CC1(F)CN(C(=O)Cn2c(=O)c(C(=O)NCc3ccc(Cl)cc3)cc3c4c(cnc32)ncn4CCO)C1 [Compound 1024] | 29
24 | Cc1nc2c3cc(C(=O)NCc4ccc(C#N)cc4)c(=O)n(CC(=O)N4CC(C)C4)c3ncc2n1C [Compound 4003] | 93
25 | CN(C)Cc1nc2cnc3c(cc(C(=O)NCc4ccc(Cl)cc4)c(=O)n3CC(=O)N3CC(C)(C)C3)c2n1C [Compound 1070] | 61
26 | CC1(C)CN(C(=O)Cn2c(=O)c(C(=O)NCc3ccc(Cl)cc3)cc3c4c(cnc32)-c2ccccc2CO4)C1 [Compound 5012] | 160
27 | Cn1cc(N2CCOc3c2cnc2c3cc(C(=O)NCc3ccc(Cl)cc3)c(=O)n2CC(=O)N2CC(C)(F)C2)cn1 [Compound 5015] | 200
28 | CC1(F)CN(C(=O)Cn2c(=O)c(C(=O)NCc3ccc(Cl)cc3)cc3c4nc5n(c4cnc32)CCC5)C1 [Compound 5004] | 77
29 | CC1(C)CN(C(=O)Cn2c(=O)c(C(=O)NCc3ccc(Cl)cc3)cc3c4c(cnc32)NCCN4)C1 [Compound 5021] | 330
30 | CC1(F)CN(C(=O)Cn2c(=O)c(C(=O)NCc3ccc(Cl)cc3)cc3c4c(cnc32)nc2n4CCOC2)C1 [Compound 5002] | 69
